Where a name gives a salt, the structure may show the parent alone. Read-outs that look alike come from different tables or passages of the source.
Columns and labels:
[1] = tested on: experimental hepatopathy models prepared by administering carbon tetrachloride; test: Inhibitory action on hepatopathy in hepatopathy models by carbon tetrachloride (lipid emulsion; serum GPT and GOT); type: in vivo, ddY strain male mice; conditions: Mus musculus, iv, 20 h, i.v., one hour before carbon tetrachloride; for inhibition in vivo at 0.001 mg/kg: dose 1 μg/kg; for inhibition in vivo at 0.0001 mg/kg: dose 0.1 μg/kg
Method: Carbon tetrachloride was diluted with olive oil to a concentration of 0.5% when administered. The present isoprenylamine derivatives were formulated into the lipid emulsions according to the method described in Pharmaceutical Example 8 and intravenously administered at a dose of 0.1-10 μg/kg one hour before the administration of carbon tetrachloride. 20 hours after the administration of carbon tetrachloride, blood samples were collected from animals under ether anesthesia and centrifuged. Then, serum GPT and GOT were determined and the respective inhibition rates were calculated on the bases of the serum GPT and GOT values obtained when the present isoprenylamine derivative was not administered being defined as 100, respectively.

[2] = tested on: experimental hepatopathy models prepared by D-galactosamine administration; test: Inhibitory action on hepatopathy in hepatopathy models by D-galactosamine (serum GPT and GOT); type: in vivo, Wistar strain male mice; conditions: iv, 24 h, lipid emulsion, i.v., dose 10 μg/kg, 2 hours after D-galactosamine
Method: (§1) In these tests, GPT (glutamic-pyruvic transaminase) and GOT (glutamic-oxaloacetic transaminase) were determined using kits for the determination of GPT and GOT upon the method by U. Lippi et al., Iatrozyme TA-Lq (available from Iatron Laboratories Inc.), wherein the NADH formed when enzymes act upon substrates can reduce nitrotetrazolium blue (NTB) via 1-methoxy-5-methylphenazinium methylsulfate (1-methoxy PMS) to form formazan, which is then subjected to colorimetric analysis at a wavelength of 560 nm.
Inhibitory action of lipid emulsions containing the present isoprenylamine derivatives was evaluated by inhibition rates of GPT and GOT in experimental hepatopathy models prepared by D-galactosamine administration.
The experimental hepatopathy model was prepared by intraperitoneal administration of D-galactosamine at 400 mg/kg to Wistar strain male […] weighing about 170 g. The present isoprenylamine derivative was formulated to a lipid emulsion according to the method described in Pharmaceutical Example 8, and was intravenously administered at a dose of 10-30 μg/kg 2 hours after the administration of D-galactosamine.
(§2) 24 hours after the D-galactosamine administration, blood samples were collected form animals under ether anesthesia and centrifuged. Then, serum GPT and GOT were determined and the respective inhibition rates were calculated on the bases of the serum GPT and GOT values obtained when the present isoprenylamine derivatives were not administered being defined as 100, respectively.
For comparison, glycyrrhizin ammonium (Tokyo Kasei Co.) dissolved in distilled water was administered in a similar manner to that for the isoprenylamine derivatives, blood sampling and determination were conducted and the serum GPT and GOT inhibition rates were calculated.

[3] = tested on: experimental hepatopathy models prepared by administering carbon tetrachloride; test: Inhibitory action on hepatopathy in hepatopathy models by carbon tetrachloride (suspension with 2% Tween 80; serum GPT and GOT); type: in vivo, ddY strain male mice; conditions: suspension with 2% Tween 80, i.v., dose 0.1 mg/kg, one hour before carbon tetrachloride
Method: as §1
Inhibitory actions of the present isoprenylamine derivatives was evaluated by inhibition rates of GPT and GOT in experimental hepatopathy models prepared by administering carbon tetrachloride.
The experimental hepatopathy model was prepared by intraperitoneal administration of 0.02 ml/kg carbon tetrachloride to ddY strain male mice (6 weeks old, body weight of about 30 g). Carbon tetrachloride was diluted with olive oil to a concentration of 0.5% when administered. […]
as §2, with “20” for “24”, “administration of carbon tetrachloride,” for “D-galactosamine administration,”, “from” for “form”, “Compound 6 was” for “the present isoprenylamine derivatives were”

Structure (SMILES)	inhibition in vivo at 0.001 mg/kg ([1]; read-out: GOT inhibition) [%]	inhibition in vivo at 0.001 mg/kg ([1]; read-out: GPT inhibition) [%]	inhibition in vivo at 0.01 mg/kg ([2]; read-out: GOT inhibition) [%]	inhibition in vivo at 0.01 mg/kg ([2]; read-out: GPT inhibition) [%]	GOT inhibition [3] [%]	GPT inhibition [3] [%]	inhibition in vivo at 0.0001 mg/kg ([1]; read-out: GOT inhibition) [%]	inhibition in vivo at 0.0001 mg/kg ([1]; read-out: GPT inhibition) [%]
CC(C)=CCC/C(C)=C/CC/C(C)=C/CC/C(C)=C/CC/C(C)=C/CC/C(C)=C/CC/C(C)=C/CNCc1ccc2c(c1)OCO2 [Compound 4, N-farnesylgeranylgeranylpiperonylamine hydrochloride]	28	22	31	30				
CC(C)=CCC/C(C)=C/CC/C(C)=C/CC/C(C)=C/CC/C(C)=C/CC/C(C)=C/CC/C(C)=C/CC/C(C)=C/CC/C(C)=C/CNCc1ccc2c(c1)OCO2 [Compound 6, N-solanesylpiperonylamine hydrochloride]	50	40	40	40	37	34		
CC(C)=CCC/C(C)=C/CC/C(C)=C/CC/C(C)=C/CC/C(C)=C/CC/C(C)=C/CC/C(C)=C/CC/C(C)=C/CC/C(C)=C/CC/C(C)=C/CNCc1ccc2c(c1)OCO2 [Compound 20, N-decaprenylpiperonylamine hydrochloride]			44	43			53	60
